From PMC7059125 (Bioorganic & medicinal chemistry letters, 2018)
One block for each compound: values may come before it.

Target: mushroom tyrosinase (Agaricus bisporus, UniProt C7FF04)
Experiment: Tyrosinase inhibitory assay
Type: biochemical
[1] = percent inhibition at 500 μM, versus carvacrol (1)

Sequence of mushroom tyrosinase (C7FF04 1-392): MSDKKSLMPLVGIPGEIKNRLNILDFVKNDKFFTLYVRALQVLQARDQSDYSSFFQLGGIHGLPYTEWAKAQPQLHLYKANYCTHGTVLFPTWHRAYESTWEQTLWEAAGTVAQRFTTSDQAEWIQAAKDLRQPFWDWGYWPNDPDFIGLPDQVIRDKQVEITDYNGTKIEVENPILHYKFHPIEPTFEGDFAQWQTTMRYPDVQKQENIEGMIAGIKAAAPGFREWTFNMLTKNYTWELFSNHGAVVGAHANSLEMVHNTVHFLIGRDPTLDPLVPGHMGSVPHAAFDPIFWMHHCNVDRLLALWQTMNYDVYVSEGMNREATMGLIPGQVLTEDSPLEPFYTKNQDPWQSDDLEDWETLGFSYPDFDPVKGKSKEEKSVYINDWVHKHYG

- fold decrease in activity relative to carvacrol [1]: 2.1 fold
Structure (SMILES): CCOc1cc(C(C)C)c(C(=O)CCC(=O)O)cc1C [Compound 5]

- inhibition at 500 µM: 100 ± 3.9%
Structure (SMILES): CCCCOC(=O)CCC(=O)c1cc(C(C)C)c(OCC)cc1C [Compound 18]

- fold increase in activity relative to carvacrol [1]: 1.6 fold
Structure (SMILES): CCOc1cc(C(C)C)ccc1C [Compound 3, ethyl carvacrol]
